Source: PMC2222763 (The Journal of General Physiology, 1998)
“And” between values parts separate entries of the source, which are not always exact repeats. Equal values may be shown once. Read-outs that look alike come from different tables or passages of the source.

What was measured:
[1] = tested on: large-conductance Ca^2+-activated K^+ channels (BK channels); assay: Steady state activation of BK channels; format: biochemical, goldfish, Carassius auratus; conditions: for Po: 20 μM [Sr^2+]i or 5 μM [Ca^2+]i (equipotent); for decrease in V0.5 produced by a 10-fold increase in concentration: slopes of concentration–V0.5 plots
[2] = tested on: large-conductance Ca^2+-activated K^+ channels (BK channels); format: biochemical, goldfish, Carassius auratus; conditions: voltage steps −50 to +50 mV; 20 μM Sr^2+ or 5 μM Ca^2+
[3] = tested on: large-conductance Ca^2+-activated K^+ channels (BK channels); format: biochemical, goldfish, Carassius auratus
[4] = tested on: BK channels; conditions: cultured neurons from rat hypothalamus and brain stem; ref Kang et al., 1994; cited from earlier work
[5] = tested on: BK channels; conditions: T-tubule membrane in lipid bilayers; ref Oberhauser et al., 1988; cited from earlier work
[6] = tested on: large-conductance Ca^2+-activated K^+ channels (BK channels); assay: Slow blockade: long shut events and burst durations in single BK channels; format: biochemical, goldfish, Carassius auratus
[7] = tested on: BK channels; conditions: cited from earlier work

[Ca+2].[Cl-].[Cl-] [Ca^2+]
Hill coefficient for activation (slope of Hill plot) ([1]; 50 mV): 2.7
Po ([1]; 50 mV): 0.315
decrease in V0.5 produced by a 10-fold increase in concentration ([1]; eight membrane patches): ~35 mV
activation time constant [2]: 1.14 ms
deactivation time constant [2]: 0.54 ms
single-channel current amplitude ([3]; 5 μM [Ca^2+]i, 50 mV (original amplitude)): 13.2 pA
single-channel current amplitude ([3]; 5 μM [Ca^2+]i, 100 mV (original amplitude)): 26.1 pA
potency in reducing the outward current amplitude relative to internal Mg^2+ [4]: ~1,000 ×
potency of fast blockade relative to Mg^2+ or Sr^2+ [5]: > 10 ×

[Sr+2] [Sr^2+, Strontium]
half-activation voltage V0.5 (Boltzmann distribution) ([1]; 5 μM [Sr^2+]i): 72 mV
n (equivalent number of gating charges, Boltzmann distribution) ([1]; 5 μM [Sr^2+]i): 1.6
half-activation voltage V0.5 (Boltzmann distribution) ([1]; 20 μM [Sr^2+]i): 39 mV
n (equivalent number of gating charges, Boltzmann distribution) ([1]; 20 μM [Sr^2+]i): 1.4
half-activation voltage V0.5 (Boltzmann distribution) ([1]; 200 μM [Sr^2+]i): 1 mV
n (equivalent number of gating charges, Boltzmann distribution) ([1]; 200 μM [Sr^2+]i): 1.3
half-activation voltage V0.5 (Boltzmann distribution) ([1]; 1,000 μM [Sr^2+]i): −22 mV
n (equivalent number of gating charges, Boltzmann distribution) ([1]; 1,000 μM [Sr^2+]i): 1.3
Hill coefficient for activation (slope of Hill plot) ([1]; 2nd of +50 to −50 mV series (40 mV)): 1.3
Hill coefficient for activation (slope of Hill plot) ([1]; 3rd of +50 to −50 mV series (30 mV)): 1.2
Hill coefficient for activation (slope of Hill plot) ([1]; 4th of +50 to −50 mV series (20 mV)): 1.0
Hill coefficient for activation (slope of Hill plot) ([1]; 5th of +50 to −50 mV series (10 mV)): 0.83
Hill coefficient for activation (slope of Hill plot) ([1]; 6th of +50 to −50 mV series (−10 mV)): 0.69
Hill coefficient for activation (slope of Hill plot) ([1]; 7th of +50 to −50 mV series (−20 mV)): 0.70
Hill coefficient for activation (slope of Hill plot) ([1]; 8th of +50 to −50 mV series (−30 mV)): 0.79
Hill coefficient for activation (slope of Hill plot) ([1]; 9th of +50 to −50 mV series (−40 mV)): 0.78
Hill coefficient for activation (slope of Hill plot) ([1]; 10th of +50 to −50 mV series (−50 mV)): 0.72
Hill coefficient for activation (slope of Hill plot) ([1]; 50 mV): 1.6
Po ([1]; 50 mV): 0.309
Hill coefficient for activation ([1]; between −10 and −50 mV): ~0.7
potency in activating BK channels relative to Ca^2+ ([1]; from concentration–V0.5 plots, eight membrane patches): approximately one-fourth
decrease in V0.5 produced by a 10-fold increase in concentration ([1]; eight membrane patches): ~25 mV
activation time constant [2]: 1.22 ms
deactivation time constant [2]: 0.61 ms
single-channel current amplitude ([3]; 0.1 mM [Sr^2+]i, 50 mV): 12.3 pA
single-channel current amplitude ([3]; 0.1 mM [Sr^2+]i, 100 mV): 23.7 pA
single-channel current amplitude ([3]; 1.0 mM [Sr^2+]i, 50 mV): 10.9 pA
single-channel current amplitude ([3]; 1.0 mM [Sr^2+]i, 100 mV): 19.7 pA
single-channel current amplitude ([3]; 10 mM [Sr^2+]i, 50 mV): 8.0 pA
single-channel current amplitude ([3]; 10 mM [Sr^2+]i, 100 mV): 9.8 pA
Hill coefficient for amplitude reduction (slope of Hill plot) ([3]; 1st of 100–30 mV series (100 mV)): 0.75
Hill coefficient for amplitude reduction (slope of Hill plot) ([3]; 2nd of 100–30 mV series (90 mV)): 0.73
Hill coefficient for amplitude reduction (slope of Hill plot) ([3]; 3rd of 100–30 mV series (80 mV)): 0.75
Hill coefficient for amplitude reduction (slope of Hill plot) ([3]; 4th of 100–30 mV series (70 mV)): 0.70
Hill coefficient for amplitude reduction (slope of Hill plot) ([3]; 5th of 100–30 mV series (60 mV)): 0.66
Hill coefficient for amplitude reduction (slope of Hill plot) ([3]; 6th of 100–30 mV series (50 mV)): 0.62
Hill coefficient for amplitude reduction (slope of Hill plot) ([3]; 7th of 100–30 mV series (40 mV)): 0.67
Hill coefficient for amplitude reduction (slope of Hill plot) ([3]; 8th of 100–30 mV series (30 mV)): 0.64
Hill coefficients for amplitude reduction ([3]; all voltages (30–100 mV), [Sr^2+]i 0.5 mM or higher): 0.62–0.75
internal concentration producing fast and slow blockade ([3]; concentration and voltage dependent): > 100 µM
permeation of the channel ([3]; no shift in the reversal voltage in the current–voltage relation): could scarcely permeate the channel
duration of long shut events (slow blockade) [6]: 10 to 200 ms
probability for the open state during bursts (P[open|burst]) ([6]; 500 μM [Sr^2+]i at 30 mV): 0.86
time constant of burst durations (τb) ([6]; 0.5 mM [Sr^2+]i, 30 mV): 1,310 ms
time constant of long shut events (τl−s) ([6]; 0.5 mM [Sr^2+]i, 30 mV): 75.1 ms
time constant of burst durations (τb) ([6]; 0.5 mM [Sr^2+]i, 50 mV): 631 ms
time constant of long shut events (τl−s) ([6]; 0.5 mM [Sr^2+]i, 50 mV): 44.7 ms
time constant of burst durations (τb) ([6]; 2 mM [Sr^2+]i, 30 mV): 520 ms
time constant of long shut events (τl−s) ([6]; 2 mM [Sr^2+]i, 30 mV): 41.3 ms
time constant of burst durations (τb) ([6]; 2 mM [Sr^2+]i, 50 mV): 195 ms
time constant of long shut events (τl−s) ([6]; 2 mM [Sr^2+]i, 50 mV): 41.0 ms
time constant of burst durations (τb) ([6]; 10 mM Sr^2+, 50 mV, threshold time for long shut events 3.32 ms): 51.0 ms
time constant of burst durations (τb) ([6]; 10 mM Sr^2+, 50 mV, threshold time for long shut events 15.8 ms): 94.0 ms
probability for the open state during bursts (P[open|burst]) ([6]; 10 mM [Sr^2+]i at 50 mV): 0.94
time constant of burst durations (τb) ([6]; 10 mM [Sr^2+]i, 30 mV): 163 ms
time constant of long shut events (τl−s) ([6]; 10 mM [Sr^2+]i, 30 mV): 44.6 ms
time constant of long shut events (τl−s) ([6]; 10 mM [Sr^2+]i, 50 mV): 34.4 ms
time constant of burst durations (τb) ([6]; 10 mM [Sr^2+]i, 50 mV (threshold time for long shut events 6.64 ms)): 63.2 ms
τb ([6]; 10 mV, square patch (Fig. 9 C)): 425 ms
slope of log(n 1−s/n s) versus log([Sr^2+]i) ([6]; 10 mV, triangle patch): 0.95
slope of log(τb) versus log([Sr^2+]i) ([6]; 10 mV, triangle patch): −1.23
slope of log(τl−s) versus log([Sr^2+]i) ([6]; 10 mV, triangle patch): −0.15
slope of log(n 1−s/n s) versus log([Sr^2+]i) ([6]; 30 mV, circle patch): 0.71
slope of log(τb) versus log([Sr^2+]i) ([6]; 30 mV, circle patch): −0.74
slope of log(τl−s) versus log([Sr^2+]i) ([6]; 30 mV, circle patch): −0.094
slope of log(n 1−s/n s) versus log([Sr^2+]i) ([6]; 30 mV, triangle patch): 1.08
slope of log(τb) versus log([Sr^2+]i) ([6]; 30 mV, triangle patch): −0.78
slope of log(τl−s) versus log([Sr^2+]i) ([6]; 30 mV, triangle patch): 0.01
slope of log(n 1−s/n s) versus log([Sr^2+]i) ([6]; 50 mV, circle patch): 0.92
slope of log(τb) versus log([Sr^2+]i) ([6]; 50 mV, circle patch): −0.74
slope of log(τl−s) versus log([Sr^2+]i) ([6]; 50 mV, circle patch): −0.11
zd for slow blockade (Woodhull equation, Eq. 7) ([6]; one value per experiment): 0.95 and 1.84
slope of log(n 1−s/n s) versus log([Sr^2+]i) ([6]; square patch): 1.18
slope of log(τb) versus log([Sr^2+]i) ([6]; square patch): −1.00
slope of log(τl−s) versus log([Sr^2+]i) ([6]; square patch): −0.05
slopes of log(τb) versus log([Sr^2+]i) fitting lines ([6]; three experiments): −0.74 to −1.23
slopes of log(τl−s) versus log([Sr^2+]i) fitting lines ([6]; three experiments): −0.15–0.01

[Ba+2] [Ba^2+, barium ion]
time constant of long shut events, second exponential ([6]; 20 μM [Ba^2+]i, 100 μM [Ca^2+]i, 50 mV, area 162 events): 359 ms
time constant of long shut events, first exponential ([6]; 20 μM [Ba^2+]i, 100 μM [Ca^2+]i, 50 mV, area 372 events): 18.8 ms
depth of the binding site within the membrane voltage field (Ba^2+ blockade) ([7]; ref Benham et al., 1985): 0.96
depth of the binding site within the membrane voltage field (Ba^2+ blockade) ([7]; ref Diaz et al., 1996): 0.92
depth of the binding site within the membrane voltage field (Ba^2+ blockade) ([7]; ref Neyton and Miller, 1988): 0.5–0.7
depth of the binding site within the membrane voltage field (Ba^2+ blockade) ([7]; ref Vergara and Latorre, 1983): 0.8
